Measurements as given in patent US7030081B2 (S.I.S.S.A.- Scuola Internazionale Superiore di Studi …, priority 2000, dated 2006).
“And” between values parts separate entries of the source, which are not always exact repeats. Equal entries are not always repeated. “Also recorded” adds a separate entry of the source. No end group written: not given here.

Columns and labels:
nAChRs = conditions: Giniatullin et al.; cited from earlier work
[1] = test system: nAChRs of rat chromaffin cells; assay: Patch-clamp recording of nicotine-induced currents in cultured rat chromaffin cells; format: cell-based; conditions: for effect on nicotine dose response curve: 1 μM peptide or 0.5 μM physostigmine; for depression (reduction) of the response to nicotine: 5 μM physostigmine, 0.1 mM nicotine
Experimental: Cultures of rat chromaffin cells were prepared according to the Brandt method (Brandt et al., 1976, Giniatullin et al., 1999, Khirough et al., 1997, 1998). 25–35 day old rats were anaesthetized by increasing CO2 levels and then their adrenal glands were removed. The medullary part was separated from the cortical portion of the gland in buffer solution (pH 7.2) containing (mM): NaCl 137, KCl 3, Na2HPO4 0.7, HEPES 25, glucose 10 and 350 U ml^−1 of penicillin and streptomycin.
Cells were successively dissociated from fragments of medullary tissue at 37° C. over about 60 min, by passing them through a Pasteur pipette at 15 min intervals, and by enzymatic treatment with collagenase A and DNAse I (0.5 U ml^−1 and 10 μgml^−1). The cell containing suspension was then centrifuged at 700 rpm for 5 min and washed twice in HEPES buffered medium. The cells, after re-suspension in DMEM culture medium (Dulbecco's modified Eagle's medium) with addition of 10% FCS (calf fetal serum), were plated on poly-lysine (5 mg/ml)-pretreated Petri dishes and cultured at 37° C. for 1–2 days in 5% CO2 containing atmosphere.
(§1) Dishes containing cultured cells (used from 0 to 3 days after their preparation) were placed on an inverted Nikon DIAPHOT™ microscope and continuously superfused (5–10 ml/min) with control saline containing (mM): NaCl 135, KCl 5, MgCl2 1, CaCl2 2, glucose 15, HEPES 10 (pH 7.4 with addition of […]; 285 mOsm osmolarity). The patch pipettes, obtained from glass capillary tubes (1.5 mm o.d.) had 5–6 MΩ resistance when filled with intracellular solution containing: (mM) CsCl 120; HEPES 20; MgCl2 1; Mg2ATP3 3, BAPTA 10 (240 mOsm). The pH of the intracellular solution was adjusted to 7.2 with CsOH. Unless otherwise specified, all recordings were carried out at −70 mV membrane potential. After obtaining whole-cell configuration (Hamill et al. 1981), each cell was stabilized for […] period, after which membrane ionic currents, mediated by nAChR activation, were recorded, filtered at 1 kHz, and stored in a PC for subsequent analysis with the pCLAMP 6.04 program (Axon Instruments Inc., Foster City, Calif.).
nAChR agonists were administered to single cells by a pressure system from a micropipette containing a relatively concentrated solution and placed at […] distance from the recorded cell. […] This method allows very rapid administration of a chemical substance with a few ms latency to observe a cell response. For application of antagonists, test compounds and control solution we used a rapid superfusion system (Bio-logic, France) consisting of an array of glass capillary tubes (0.8 mm o.d.) which, through rapid rotation, generate solution flow onto the treated cell. In this case the exchange time between two solutions is about 50 ms.

[2] = target: T1, muscle-type nicotinic receptors (Mus musculus, UniProt P02716+P04756+P09690); assay: Patch-clamp recording of nicotinic currents in cultured muscle cells (myotubes, I28); format: cell-based
T1 construct: nicotinic currents recorded from cultured muscle cells (myotubes, I28); endogenous in cells; host or cells: I28 myotubes
T1 sequence (P04756 21-457): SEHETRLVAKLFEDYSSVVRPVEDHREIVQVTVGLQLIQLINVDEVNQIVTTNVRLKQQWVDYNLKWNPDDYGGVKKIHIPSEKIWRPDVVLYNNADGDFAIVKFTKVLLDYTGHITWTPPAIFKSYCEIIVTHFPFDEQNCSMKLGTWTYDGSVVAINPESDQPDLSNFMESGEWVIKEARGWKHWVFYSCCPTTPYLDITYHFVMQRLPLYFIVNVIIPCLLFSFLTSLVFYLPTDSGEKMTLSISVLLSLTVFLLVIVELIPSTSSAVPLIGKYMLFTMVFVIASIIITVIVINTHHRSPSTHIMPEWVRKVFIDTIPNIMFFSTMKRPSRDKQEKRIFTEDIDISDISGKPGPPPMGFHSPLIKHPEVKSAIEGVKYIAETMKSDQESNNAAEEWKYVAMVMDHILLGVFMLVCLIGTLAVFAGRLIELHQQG
T1 sequence (P09690 24-501): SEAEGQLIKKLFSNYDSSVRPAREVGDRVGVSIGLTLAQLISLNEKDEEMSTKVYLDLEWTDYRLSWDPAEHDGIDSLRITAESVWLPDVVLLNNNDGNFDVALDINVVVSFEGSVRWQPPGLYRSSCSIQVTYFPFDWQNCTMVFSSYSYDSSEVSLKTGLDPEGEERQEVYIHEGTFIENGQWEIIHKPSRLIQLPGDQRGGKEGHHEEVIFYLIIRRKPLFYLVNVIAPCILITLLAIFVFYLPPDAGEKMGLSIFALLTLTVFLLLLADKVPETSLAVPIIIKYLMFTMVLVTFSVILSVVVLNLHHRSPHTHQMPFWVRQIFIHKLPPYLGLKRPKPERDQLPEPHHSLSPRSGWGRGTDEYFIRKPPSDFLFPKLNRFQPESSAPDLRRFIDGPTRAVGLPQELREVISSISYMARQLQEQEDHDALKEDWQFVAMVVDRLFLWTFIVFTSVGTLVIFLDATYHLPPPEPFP
T1 sequence (P02716 25-520): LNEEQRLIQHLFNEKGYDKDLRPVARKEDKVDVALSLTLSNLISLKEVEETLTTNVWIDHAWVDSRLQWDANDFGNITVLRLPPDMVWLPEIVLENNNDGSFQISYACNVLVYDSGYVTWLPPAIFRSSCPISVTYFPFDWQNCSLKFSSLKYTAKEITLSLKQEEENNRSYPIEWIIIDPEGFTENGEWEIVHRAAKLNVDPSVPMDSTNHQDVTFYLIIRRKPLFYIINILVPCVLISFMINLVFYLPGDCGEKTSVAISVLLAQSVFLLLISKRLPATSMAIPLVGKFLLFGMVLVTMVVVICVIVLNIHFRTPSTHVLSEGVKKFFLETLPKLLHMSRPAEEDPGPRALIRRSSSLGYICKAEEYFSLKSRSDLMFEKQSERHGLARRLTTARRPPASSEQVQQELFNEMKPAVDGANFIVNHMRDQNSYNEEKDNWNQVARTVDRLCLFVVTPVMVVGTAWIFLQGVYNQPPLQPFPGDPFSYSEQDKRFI
T1 sequence (P04760 23-519 partner): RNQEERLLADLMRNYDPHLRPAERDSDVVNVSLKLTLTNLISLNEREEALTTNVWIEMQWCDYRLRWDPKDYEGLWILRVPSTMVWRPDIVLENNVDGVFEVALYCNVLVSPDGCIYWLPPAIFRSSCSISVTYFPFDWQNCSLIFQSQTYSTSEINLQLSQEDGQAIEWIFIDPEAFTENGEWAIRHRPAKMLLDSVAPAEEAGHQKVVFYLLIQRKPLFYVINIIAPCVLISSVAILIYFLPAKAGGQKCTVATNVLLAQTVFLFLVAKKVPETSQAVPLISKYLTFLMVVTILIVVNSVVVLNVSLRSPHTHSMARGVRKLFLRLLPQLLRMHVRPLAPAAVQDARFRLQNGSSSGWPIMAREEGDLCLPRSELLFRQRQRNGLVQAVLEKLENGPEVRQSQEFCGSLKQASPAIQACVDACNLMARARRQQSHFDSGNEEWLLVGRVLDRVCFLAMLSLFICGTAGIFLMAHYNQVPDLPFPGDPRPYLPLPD
Experimental: A set of experiments was carried out using […] which represent myotubes and therefore contain muscle-type nicotinic receptors. For this purpose the cells were prepared according to method by Irintchev et al. (1997).
as §1
To this end we studied whether this peptide could affect nicotinic currents recorded from cultured muscle cells (myotubes, I28). These cells were kept at −60 mV potential by the patch electrode.

[3] = 1 μM peptide, nicotine 0.1 mM, 20 ms pulse

SCNTATC (cysteine pairing not given here) [CGRP 1-7, reference compound]
action on nAChRs reported earlier (in words) (nAChRs): rapidly developing, competitive antagonism readily reversible on wash
inhibition of nicotine currents ([1]; 1 μM peptide): 42%

SCNTATA [CGRP 1-7A, Cys7 replaced with Ala]
wash time for reversal of enhancement ([1]; 1 μM peptide): about 1 min
effect on nicotine dose response curve [1]: significantly shifted to left without increase in the maximum response
enhancement of nicotine induced currents [1, 3]: 17±4%
enhancement of nicotine induced currents ([1]; 1 μM peptide, nicotine 0.1 mM, 20 ms pulse, listed as 1-7A): 18%
enhancement of nicotine induced currents ([1]; 1 μM peptide, nicotine 0.1 mM, 20 ms pulse, listed as CGRP 1-7 A): about 18%

CN1CCCC1c1cccnc1 (stereo not drawn) [Nicotine, nicotine, reference compound]
EC50 [2]: 100 µM

Ser-Cys-Asn-Thr-Ala (SCNTA; listed as Homo sapiens) [CGRP 1-5]
enhancement of nicotine induced currents ([1]; 10 μM peptide): 26±4%

SCNTAT [CGRP 1-6]
effect on muscle-type nicotinic receptor responses (in words) [2]: did not modify the muscle-type nicotinic receptor responses
amplitude of nicotine responses as % of the controls ([2]; 1 μM CGRP 1-6 pre-applied for 2 minutes, nicotine 100 μM, −60 mV): 101±2%
potentiation of nicotine current at threshold ([1]; 0.1 μM peptide, nicotine 20 ms, 0.1 mM): 105±7%
nicotine currents (fraction of control) on concurrent application of CGRP 1-6 and CGRP 1-7 ([1]; 1 μM concentration of both): 99±4%
application time after which enhancement is observed ([1]; 1 μM peptide): ≤ 5 s
wash time for reversal of enhancement ([1]; 1 μM peptide): about 1 min
effect on nicotine dose response curve [1]: shifted to the left in a parallel fashion without modification of the maximum response
effect on maximal currents (saturating nicotine pulse) ([1]; 1 μM peptide, 200 ms nicotine pulse): absent; also recorded: not modified
enhancement of nicotine induced currents [1, 3]: 31% and 31±7% and 21±4%
maximum value of potentiation of nicotine current ([1]; 50 μM peptide, nicotine 20 ms, 0.1 mM): 156±6%
enhancement with combined application of CGRP 1-6 and physostigmine ([1]; CGRP 1-6 1 μM + physostigmine 0.5 μM): 37±6%
washout time for current to return to the initial value ([1]; FIG. 3C): 45 to 60 s
enhancement with cytisine as agonist ([1]; cytisine 20 ms, 0.1 mM): enhancing effect was exerted also when nAChRs were activated by cytisine
CGRP 1-6 enhancing action threshold value ([1]; nicotine 0.1 mM, 20 ms, 0.05–100 μM tested): 0.1 µM
nicotine currents as % of the control with physostigmine plus CGRP 1-6 ([1]; physostigmine 5 μM + CGRP 1-6 1 μM): 79±1%
direct action in the absence of agonist ([1]; resting membrane conductance, baseline current): not associated with any direct action
dependence of enhancing action on membrane potential ([1]; −40, −70 and −100 mV): independent from the membrane potential

CNC(=O)Oc1ccc2c(c1)[C@]1(C)CCN(C)[C@@H]1N2C [physostigmine, reference compound]
depression (reduction) of the response to nicotine ([1]; 20 ms): 48±5%
depression (reduction) of the response to nicotine ([1]; 20 ms, listed as phystigmine): 77±1%

Ser-Cys-Asn-Thr (SCNT; listed as Homo sapiens) [CGRP 1-4]
enhancement of nicotine induced currents [1, 3]: 8±1%
action of fragment on nicotinic currents (in words) ([1]; FIG. 5B): modest enhancing effect
